Results from US5981541A, “Substituted heterocycles as anti-tumor agents” (Rutgers, The State University of New Jersey, priority 1997, dated 1999).

target: T1, human topoisomerase I (Homo sapiens, UniProt P11387); experiment: Topo I-mediated DNA cleavage assay; type: biochemical; details: concentration relative to camptothecin (CPT = 1) producing the same cleavage on plasmid DNA in the presence of human topoisomerase I
T1 construct: 15 amino acid fusion from pET-11a vector (N); made in house; host or cells: E. coli BL21(DE3)
T1 sequence (P11387 1-765): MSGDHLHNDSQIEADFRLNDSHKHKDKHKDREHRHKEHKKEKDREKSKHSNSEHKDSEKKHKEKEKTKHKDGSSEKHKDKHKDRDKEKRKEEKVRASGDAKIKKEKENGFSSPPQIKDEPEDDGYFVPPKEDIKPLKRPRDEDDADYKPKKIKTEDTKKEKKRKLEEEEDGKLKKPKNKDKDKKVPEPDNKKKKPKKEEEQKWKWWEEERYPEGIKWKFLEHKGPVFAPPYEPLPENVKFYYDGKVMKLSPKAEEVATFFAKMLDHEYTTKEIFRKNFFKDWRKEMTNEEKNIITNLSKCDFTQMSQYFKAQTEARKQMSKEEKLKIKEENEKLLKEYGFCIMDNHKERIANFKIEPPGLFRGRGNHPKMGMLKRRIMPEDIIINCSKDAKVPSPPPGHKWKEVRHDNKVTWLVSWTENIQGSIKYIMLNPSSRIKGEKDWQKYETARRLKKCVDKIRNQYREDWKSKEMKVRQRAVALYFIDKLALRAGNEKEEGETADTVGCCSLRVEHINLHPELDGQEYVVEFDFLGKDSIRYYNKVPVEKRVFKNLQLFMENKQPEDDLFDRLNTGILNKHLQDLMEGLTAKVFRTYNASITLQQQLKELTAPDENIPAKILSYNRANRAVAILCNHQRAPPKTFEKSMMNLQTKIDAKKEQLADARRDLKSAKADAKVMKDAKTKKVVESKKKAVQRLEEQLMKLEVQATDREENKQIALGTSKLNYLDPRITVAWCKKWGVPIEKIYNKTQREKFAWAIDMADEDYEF
Description: To obtain large quantity of human topoisomerase I, the human topoisomerase I cDNA was cloned into the pET-11a vector, in which transcription of the cDNA is under the control of the inducible T7 promoter (Studier et al., Methods in Enzymol., Vol. 185:60-89, San Diego: Academic Press (1990)). Briefly, a 3.4 kb DNA fragment containing the entire coding sequence of human topoisomerase I and approximately 1 kb of untranslated region downstream of the stop codon was isolated from the plasmid YCpGAL1-hTOP1 (Bjornsti et al., Cancer Res. 49:6318-6323 (1989)) by cutting at the BamHI and EcoRI sites. The vector pET-11a was cut with the same restriction enzymes, dephosphorylated and ligated to the insert in the proper reading frame downstream of the vector cloning site. […] Since the translational start in pET is positioned at an upstream NdeI site, the expressed topoisomerase I has a 15 amino acid fusion at its N-terminus. pET1B was then transformed into E. coli BL21 (DE3), and, upon induction with 0.4 mM IPTG for 1 hour, the bacterial lysate was analyzed by 10% SDS-PAGE. […] Briefly, E. coli cells were lysed by repeated sonic bursts. The sonic extract was made in 1 M NaCl and 6% polyethylene glycol (PEG) to remove nucleic acids. The PEG supernatant was chromatographed directly on a hydroxyapatite column. […] The eluted enzyme was dialyzed against 50% glycerol, 30 mM potassium phosphate (pH 7.0), 1 mM dithiothreitol (DTT) and 0.1 mM EDTA and stored at -20° C.
(§1) Cleavage assays for the recombinant topoisomerases I and calf thymus topoisomerases I and II were done as described (Liu et al., J. Biol. Chem. 258:15365-15370 (1983)). The plasmid YEpG DNA used for the cleavage assays was prepared and labeled at its 3'-end using the published procedures.

SMILES | Topo I-mediated DNA cleavage (REC, Relative Effective Concentration)
COc1cc2cc3c(ccc4ccccc43)nc2cc1OC [Compound 14c, 9,10-Dimethoxybenz[a]acridine] | > 1000
COc1cc2ccc3nc4ccccc4cc3c2cc1OC [Compound 14d, 2,3-Dimethoxy-benz[a]acridine] | 1000
Oc1cc2cc3c(ccc4cc(O)c(O)cc43)nc2cc1O [Compound 14g, 2,3,9,10-tetrahydroxybenz[a]acridine] | 100
COc1cc2cc3c(ccc4cc(Cl)ccc43)nc2cc1OC [Compound 14j, 3-Chloro-9,10-dimethoxybenz[a]acridine] | 1000
COc1cc2c(cc1OC)-c1cc3cc(OC)c(OC)cc3[n+](C)c1CC2 [Compound 15a, 2,3,9,10-Tetramethoxy-7-methyl-5,6-dihydrobenz[a]acridinium methosulfate] | 100
COc1cc2ccc3c(cc4cc(OC)c(OC)cc4[n+]3C)c2cc1OC [Compound 16a, 2,3,9,10-Tetramethoxy-7-methylbenz[a]acridinium methosulfate] | > 1000
COc1cc2cc3c(nc2cc1OC)CCc1ccc(N)cc1-3 [Compound 20, 2-Amino-9,10-dimethoxy-5,6-dihydrobenz[a]acridine] | 100
COc1cc2cc3c4cc(OC)c(OC)cc4cc[n+]3c(C)c2cc1OC [Coralyne, reference compound] | 1
COc1cc2c[n+](C)c3c4cc5c(cc4ccc3c2cc1OC)OCO5 [Nitidine, reference compound] | 0.1

target: T2, calf thymus topoisomerase II (Bos taurus, UniProt F1MDU7); experiment: Topo II-mediated DNA cleavage assay; type: biochemical; details: concentration relative to VM26 (= 1) producing the same cleavage on plasmid DNA in the presence of calf thymus topoisomerase II
T2 construct: from tissue; host or cells: calf thymus glands
Description: The plasmid pET11a and the E. coli strain BL21(DE3) used for enzyme expression were purchased from Novagen. IPTG was purchased from Sigma. The ECL system used for the Western blotting analysis of bacterial lysates was from Amersham (UK). All the restriction enzymes and Vent polymerase were from New England Biolabs. Mammalian topoisomerase II was isolated from calf thymus glands according to the published procedure (Halligan et al., J. Biol. Chem. 260:2475-2482 (1985)). The single copy yeast plasmids YCpGAL1 expressing various topoisomerase I genes in JN2-134 yeast strain were a kind gift of Dr. M-A. Bjornsti (Thomas Jefferson University, Philadelphia, Pa.). All bacterial and yeast media were from Difco (Detroit, Mich.), while cell culture media were purchased from Gibco-BRL (Gaithersburg, Md.).
as §1

T2 sequence (F1MDU7 1-1532): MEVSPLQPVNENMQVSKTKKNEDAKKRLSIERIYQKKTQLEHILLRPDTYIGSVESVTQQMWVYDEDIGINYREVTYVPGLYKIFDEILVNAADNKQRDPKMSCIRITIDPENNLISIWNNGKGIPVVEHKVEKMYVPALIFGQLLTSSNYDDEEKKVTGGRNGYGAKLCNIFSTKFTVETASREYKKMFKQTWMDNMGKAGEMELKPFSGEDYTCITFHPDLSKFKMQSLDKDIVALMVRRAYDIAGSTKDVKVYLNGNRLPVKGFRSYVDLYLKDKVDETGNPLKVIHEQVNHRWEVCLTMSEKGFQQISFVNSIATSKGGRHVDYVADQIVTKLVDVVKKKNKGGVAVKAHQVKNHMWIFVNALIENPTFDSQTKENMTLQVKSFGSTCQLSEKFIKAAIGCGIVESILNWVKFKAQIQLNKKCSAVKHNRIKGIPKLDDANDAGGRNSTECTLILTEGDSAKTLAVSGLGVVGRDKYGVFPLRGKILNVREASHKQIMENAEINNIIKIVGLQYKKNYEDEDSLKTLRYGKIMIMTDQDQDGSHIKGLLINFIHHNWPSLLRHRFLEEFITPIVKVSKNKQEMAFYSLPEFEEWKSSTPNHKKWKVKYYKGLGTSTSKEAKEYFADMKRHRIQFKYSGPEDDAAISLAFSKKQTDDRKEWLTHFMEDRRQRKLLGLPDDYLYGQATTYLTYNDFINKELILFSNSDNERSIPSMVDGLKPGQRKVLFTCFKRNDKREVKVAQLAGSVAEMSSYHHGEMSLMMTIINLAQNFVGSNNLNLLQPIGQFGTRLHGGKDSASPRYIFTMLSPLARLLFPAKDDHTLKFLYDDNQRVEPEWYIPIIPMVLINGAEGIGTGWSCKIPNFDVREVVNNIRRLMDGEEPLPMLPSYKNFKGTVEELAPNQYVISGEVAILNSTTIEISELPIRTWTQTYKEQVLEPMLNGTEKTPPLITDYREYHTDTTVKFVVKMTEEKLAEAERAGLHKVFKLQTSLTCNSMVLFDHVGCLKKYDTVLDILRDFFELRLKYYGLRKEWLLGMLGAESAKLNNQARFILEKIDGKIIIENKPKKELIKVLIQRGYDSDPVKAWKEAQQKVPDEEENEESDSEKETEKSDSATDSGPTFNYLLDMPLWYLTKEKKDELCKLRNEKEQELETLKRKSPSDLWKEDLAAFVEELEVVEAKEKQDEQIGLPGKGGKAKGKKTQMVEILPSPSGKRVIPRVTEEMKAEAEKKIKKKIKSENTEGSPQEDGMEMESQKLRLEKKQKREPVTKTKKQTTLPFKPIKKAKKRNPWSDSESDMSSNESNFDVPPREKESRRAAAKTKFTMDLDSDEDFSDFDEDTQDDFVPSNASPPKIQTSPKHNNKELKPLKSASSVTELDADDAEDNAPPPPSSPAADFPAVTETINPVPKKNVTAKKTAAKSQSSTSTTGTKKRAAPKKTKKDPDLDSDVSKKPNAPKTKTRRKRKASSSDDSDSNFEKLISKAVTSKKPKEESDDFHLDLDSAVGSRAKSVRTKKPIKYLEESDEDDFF

SMILES | Topo II-mediated DNA cleavage (REC, Relative Effective Concentration)
COc1cc2cc3c(ccc4ccccc43)nc2cc1OC [Compound 14c, 9,10-Dimethoxybenz[a]acridine] | > 1000
COc1cc2ccc3nc4ccccc4cc3c2cc1OC [Compound 14d, 2,3-Dimethoxy-benz[a]acridine] | > 1000
Oc1cc2cc3c(ccc4cc(O)c(O)cc43)nc2cc1O [Compound 14g, 2,3,9,10-tetrahydroxybenz[a]acridine] | > 1000
COc1cc2cc3c(ccc4cc(Cl)ccc43)nc2cc1OC [Compound 14j, 3-Chloro-9,10-dimethoxybenz[a]acridine] | > 1000
COc1cc2c(cc1OC)-c1cc3cc(OC)c(OC)cc3[n+](C)c1CC2 [Compound 15a, 2,3,9,10-Tetramethoxy-7-methyl-5,6-dihydrobenz[a]acridinium methosulfate] | > 1000
COc1cc2ccc3c(cc4cc(OC)c(OC)cc4[n+]3C)c2cc1OC [Compound 16a, 2,3,9,10-Tetramethoxy-7-methylbenz[a]acridinium methosulfate] | > 1000
COc1cc2cc3c(nc2cc1OC)CCc1ccc(N)cc1-3 [Compound 20, 2-Amino-9,10-dimethoxy-5,6-dihydrobenz[a]acridine] | > 1000
COc1cc2cc3c4cc(OC)c(OC)cc4cc[n+]3c(C)c2cc1OC [Coralyne, reference compound] | > 1000
COc1cc2c[n+](C)c3c4cc5c(cc4ccc3c2cc1OC)OCO5 [Nitidine, reference compound] | 5

system: Human lymphoblast RPMI 8402 cells; experiment: MTT-microtiter plate tetrazolinium cytotoxicity assay (MTA), RPMI 8402; type: cell-based; details: Homo sapiens, 96 h; RPMI 8402 cells; 4 days of continuous drug exposure; read-out: Cytotoxicity IC50, RPMI
Protocol: (§2) The IC50 of the drugs tested were determined by the MTT-microtiter plate tetrazolinium cytotoxicity assay (MTA) (Mosmann, T., J. Immunol. Methods 65:55-63 (1983); Denizot et al., J. Immunol. Methods 89:271-277 (1986)). Human lymphoblast RPMI 8402 cells and their camptothecin-resistant CPT-K5 cells (Andoh et al., Proc. Natl. Acad. Sci., USA 84:5565-5569 (1987)) were kindly provided by Dr. Toshiwo Andoh (Aichi Cancer Center Research Institute, Nagoya, Japan). The cell lines A2780 and its camptothecin-resistant derivative CPT-2000 were a generous gift of Dr. Jaulang Hwang (Institute of Molecular Biology, Academia sinica, Taiwan). Cells (2000 cells/well, seeded in […] growth medium) were grown in suspension at 37° C. in 5% CO2 and maintained by regular passage in RPMI medium supplemented with 10% heat inactivated fetal bovine serum, L-glutamine (2 mM), penicillin (100 U/mi), and streptomycin (0.1 mg/ml). The cells were exposed continuously for 4 days to drug concentrations ranging from 100 ug/ml to 1.0 ng/ml in ten fold dilutions, and assayed at the end of the fourth day. Each concentration and the no drug control were repeated at least twice in 6 replica wells. The results were plotted and the IC50 then measured. The drug sensitive human epidermoid carcinoma KB 3-1 cell line and its vinblastine-selected multidrug-resistant variant KB-V1 cells (Akiyama et al., Genetics 11:117-126 (1985)) were kindly provided by Dr. Michael Gottesmann (National Cancer Institute). They were grown as monolayer cultures at 37° C. in 5% CO2 and maintained by regular passage in Dulbecco's minimal essential medium supplemented with 10% heat inactivated fetal bovine serum. KB-V1 cells were maintained in the presence of […] vinblastine.

SMILES | IC50
COc1cc2ccc3c(cc4cc(OC)c(OC)cc4[n+]3C)c2cc1OC [Compound 16a, 2,3,9,10-Tetramethoxy-7-methylbenz[a]acridinium methosulfate] | 25.3 µM

same assay, conditions: Homo sapiens, RPMI 8402, 96 h, read-out: Cytotoxicity IC50, RPMI

SMILES | IC50
COc1cc2cc3c(ccc4ccccc43)nc2cc1OC [Compound 14c, 9,10-Dimethoxybenz[a]acridine] | 10.4 µM
COc1cc2ccc3nc4ccccc4cc3c2cc1OC [Compound 14d, 2,3-Dimethoxy-benz[a]acridine] | 10.4 µM
Oc1cc2cc3c(ccc4cc(O)c(O)cc43)nc2cc1O [Compound 14g, 2,3,9,10-tetrahydroxybenz[a]acridine] | 17.1 µM
COc1cc2cc3c(ccc4cc(Cl)ccc43)nc2cc1OC [Compound 14j, 3-Chloro-9,10-dimethoxybenz[a]acridine] | > 31 µM
COc1cc2c(cc1OC)-c1cc3cc(OC)c(OC)cc3[n+](C)c1CC2 [Compound 15a, 2,3,9,10-Tetramethoxy-7-methyl-5,6-dihydrobenz[a]acridinium methosulfate] | > 24 µM
COc1cc2cc3c(nc2cc1OC)CCc1ccc(N)cc1-3 [Compound 20, 2-Amino-9,10-dimethoxy-5,6-dihydrobenz[a]acridine] | 16.3 µM
COc1cc2cc3c4cc(OC)c(OC)cc4cc[n+]3c(C)c2cc1OC [Coralyne, reference compound] | 4.9 µM
COc1cc2c[n+](C)c3c4cc5c(cc4ccc3c2cc1OC)OCO5 [Nitidine, reference compound] | 0.4 µM

system: camptothecin-resistant CPT-K5 cells; experiment: MTT-microtiter plate tetrazolinium cytotoxicity assay (MTA), CPT-K5; type: cell-based, human; details: Homo sapiens, 96 h; camptothecin-resistant CPT-K5 cells; 4 days of continuous drug exposure; read-out: Cytotoxicity IC50, CPT-K5
Protocol: as §2

SMILES | IC50
COc1cc2ccc3c(cc4cc(OC)c(OC)cc4[n+]3C)c2cc1OC [Compound 16a, 2,3,9,10-Tetramethoxy-7-methylbenz[a]acridinium methosulfate] | 23.2 µM

same assay, conditions: Homo sapiens, CPT-K5, 96 h, read-out: Cytotoxicity IC50, CPT-K5

SMILES | IC50
COc1cc2cc3c(ccc4ccccc43)nc2cc1OC [Compound 14c, 9,10-Dimethoxybenz[a]acridine] | 31.1 µM
COc1cc2ccc3nc4ccccc4cc3c2cc1OC [Compound 14d, 2,3-Dimethoxy-benz[a]acridine] | 13.8 µM
Oc1cc2cc3c(ccc4cc(O)c(O)cc43)nc2cc1O [Compound 14g, 2,3,9,10-tetrahydroxybenz[a]acridine] | > 34 µM
COc1cc2cc3c(ccc4cc(Cl)ccc43)nc2cc1OC [Compound 14j, 3-Chloro-9,10-dimethoxybenz[a]acridine] | > 31 µM
COc1cc2c(cc1OC)-c1cc3cc(OC)c(OC)cc3[n+](C)c1CC2 [Compound 15a, 2,3,9,10-Tetramethoxy-7-methyl-5,6-dihydrobenz[a]acridinium methosulfate] | > 24 µM
COc1cc2cc3c(nc2cc1OC)CCc1ccc(N)cc1-3 [Compound 20, 2-Amino-9,10-dimethoxy-5,6-dihydrobenz[a]acridine] | > 33 µM
COc1cc2cc3c4cc(OC)c(OC)cc4cc[n+]3c(C)c2cc1OC [Coralyne, reference compound] | 20 µM
COc1cc2c[n+](C)c3c4cc5c(cc4ccc3c2cc1OC)OCO5 [Nitidine, reference compound] | 3.9 µM
